Measured values from paper PMC10924921, “Mi-2β promotes immune evasion in melanoma by activating EZH2 methylation” (Nature Communications, 2024).

Columns and labels:
Experiment in all cases: biochemical
Set-up in all cases: KINOMEscan active-site competition binding panel (468 kinase assays), per cent of control at 1000 nM
Details in all cases: KINOMEscan per cent of control (binding competition); read-out: Percent Control
[1] = target: T1, ABL1(F317L)-nonphosphorylated (Homo sapiens, UniProt P00519, F317L)
T1 construct: nonphosphorylated
Description: (§1) Figure S7 / Percent Control

ALK = ALK (Homo sapiens, UniProt Q9UM73)
Chain of ALK (Q9UM73 whole entry): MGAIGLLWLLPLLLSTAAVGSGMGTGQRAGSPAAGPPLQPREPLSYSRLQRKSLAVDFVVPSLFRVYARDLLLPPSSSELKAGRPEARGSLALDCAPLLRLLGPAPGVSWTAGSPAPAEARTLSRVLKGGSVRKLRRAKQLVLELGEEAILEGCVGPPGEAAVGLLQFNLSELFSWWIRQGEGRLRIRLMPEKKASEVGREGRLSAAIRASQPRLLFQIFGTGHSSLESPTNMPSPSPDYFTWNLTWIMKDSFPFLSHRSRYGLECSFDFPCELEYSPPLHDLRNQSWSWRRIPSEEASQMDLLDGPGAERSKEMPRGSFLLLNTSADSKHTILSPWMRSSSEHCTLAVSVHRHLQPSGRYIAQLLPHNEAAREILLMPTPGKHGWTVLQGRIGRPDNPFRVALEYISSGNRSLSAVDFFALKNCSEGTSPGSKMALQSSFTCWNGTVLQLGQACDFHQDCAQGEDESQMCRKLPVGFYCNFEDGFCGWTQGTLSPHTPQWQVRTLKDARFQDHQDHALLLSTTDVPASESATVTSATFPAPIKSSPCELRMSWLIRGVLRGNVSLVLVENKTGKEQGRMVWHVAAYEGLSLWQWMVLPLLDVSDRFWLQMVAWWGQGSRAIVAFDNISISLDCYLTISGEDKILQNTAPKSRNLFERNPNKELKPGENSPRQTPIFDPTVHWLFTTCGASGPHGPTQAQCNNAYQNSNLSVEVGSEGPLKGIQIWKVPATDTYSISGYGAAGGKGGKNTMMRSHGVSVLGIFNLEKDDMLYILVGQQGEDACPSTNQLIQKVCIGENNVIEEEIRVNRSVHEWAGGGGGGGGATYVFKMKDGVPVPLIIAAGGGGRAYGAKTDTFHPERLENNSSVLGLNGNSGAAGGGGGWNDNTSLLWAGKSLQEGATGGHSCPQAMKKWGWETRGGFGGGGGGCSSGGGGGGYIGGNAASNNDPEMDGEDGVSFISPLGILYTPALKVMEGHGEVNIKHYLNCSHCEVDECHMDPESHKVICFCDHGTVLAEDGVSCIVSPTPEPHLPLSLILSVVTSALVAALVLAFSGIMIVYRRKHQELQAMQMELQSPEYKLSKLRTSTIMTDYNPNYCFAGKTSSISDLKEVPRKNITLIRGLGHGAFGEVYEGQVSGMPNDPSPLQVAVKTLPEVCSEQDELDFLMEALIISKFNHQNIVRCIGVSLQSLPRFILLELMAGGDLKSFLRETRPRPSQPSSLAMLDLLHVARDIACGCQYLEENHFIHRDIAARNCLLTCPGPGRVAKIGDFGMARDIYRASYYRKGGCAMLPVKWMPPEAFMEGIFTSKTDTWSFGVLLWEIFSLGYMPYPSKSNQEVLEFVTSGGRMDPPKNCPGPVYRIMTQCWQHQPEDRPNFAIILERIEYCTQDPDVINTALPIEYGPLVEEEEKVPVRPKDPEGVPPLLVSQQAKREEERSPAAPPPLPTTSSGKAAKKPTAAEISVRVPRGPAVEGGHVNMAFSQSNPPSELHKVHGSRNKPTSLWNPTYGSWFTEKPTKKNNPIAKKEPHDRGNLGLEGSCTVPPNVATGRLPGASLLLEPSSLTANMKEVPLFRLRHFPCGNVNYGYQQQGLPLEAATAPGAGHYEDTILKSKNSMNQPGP
Description: as §1

BMPR2 = BMPR2 (Homo sapiens, UniProt Q13873)
Description: as §1

CASK = CASK (Homo sapiens, UniProt O14936)
Description: as §1

CDK4 = CDK4 (Homo sapiens, UniProt P11802)
Description: as §1

CDK4-cyclinD1 = target: T2, CDK4-cyclinD1 (Homo sapiens, UniProt P11802)
T2 construct: cyclinD1
Description: as §1

DYRK2 = DYRK2 (Homo sapiens, UniProt Q92630)
Chain of DYRK2 (Q92630 whole entry): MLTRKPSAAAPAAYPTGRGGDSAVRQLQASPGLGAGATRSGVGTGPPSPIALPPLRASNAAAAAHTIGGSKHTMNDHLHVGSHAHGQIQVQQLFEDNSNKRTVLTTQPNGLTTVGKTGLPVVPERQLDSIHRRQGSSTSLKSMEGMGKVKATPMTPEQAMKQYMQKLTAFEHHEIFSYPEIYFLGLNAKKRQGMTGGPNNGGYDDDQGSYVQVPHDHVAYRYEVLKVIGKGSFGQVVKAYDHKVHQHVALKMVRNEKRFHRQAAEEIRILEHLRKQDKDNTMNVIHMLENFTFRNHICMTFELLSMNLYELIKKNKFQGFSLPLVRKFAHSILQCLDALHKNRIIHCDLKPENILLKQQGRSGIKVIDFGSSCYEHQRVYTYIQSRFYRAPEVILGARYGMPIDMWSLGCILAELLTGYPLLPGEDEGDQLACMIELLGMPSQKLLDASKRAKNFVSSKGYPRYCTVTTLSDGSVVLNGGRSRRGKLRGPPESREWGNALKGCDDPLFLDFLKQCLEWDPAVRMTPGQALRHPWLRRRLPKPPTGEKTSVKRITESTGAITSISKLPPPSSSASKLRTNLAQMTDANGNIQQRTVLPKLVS
Description: as §1

EPHB2 = EPHB2 (Homo sapiens, UniProt P29323)
Chain of EPHB2 (P29323 whole entry): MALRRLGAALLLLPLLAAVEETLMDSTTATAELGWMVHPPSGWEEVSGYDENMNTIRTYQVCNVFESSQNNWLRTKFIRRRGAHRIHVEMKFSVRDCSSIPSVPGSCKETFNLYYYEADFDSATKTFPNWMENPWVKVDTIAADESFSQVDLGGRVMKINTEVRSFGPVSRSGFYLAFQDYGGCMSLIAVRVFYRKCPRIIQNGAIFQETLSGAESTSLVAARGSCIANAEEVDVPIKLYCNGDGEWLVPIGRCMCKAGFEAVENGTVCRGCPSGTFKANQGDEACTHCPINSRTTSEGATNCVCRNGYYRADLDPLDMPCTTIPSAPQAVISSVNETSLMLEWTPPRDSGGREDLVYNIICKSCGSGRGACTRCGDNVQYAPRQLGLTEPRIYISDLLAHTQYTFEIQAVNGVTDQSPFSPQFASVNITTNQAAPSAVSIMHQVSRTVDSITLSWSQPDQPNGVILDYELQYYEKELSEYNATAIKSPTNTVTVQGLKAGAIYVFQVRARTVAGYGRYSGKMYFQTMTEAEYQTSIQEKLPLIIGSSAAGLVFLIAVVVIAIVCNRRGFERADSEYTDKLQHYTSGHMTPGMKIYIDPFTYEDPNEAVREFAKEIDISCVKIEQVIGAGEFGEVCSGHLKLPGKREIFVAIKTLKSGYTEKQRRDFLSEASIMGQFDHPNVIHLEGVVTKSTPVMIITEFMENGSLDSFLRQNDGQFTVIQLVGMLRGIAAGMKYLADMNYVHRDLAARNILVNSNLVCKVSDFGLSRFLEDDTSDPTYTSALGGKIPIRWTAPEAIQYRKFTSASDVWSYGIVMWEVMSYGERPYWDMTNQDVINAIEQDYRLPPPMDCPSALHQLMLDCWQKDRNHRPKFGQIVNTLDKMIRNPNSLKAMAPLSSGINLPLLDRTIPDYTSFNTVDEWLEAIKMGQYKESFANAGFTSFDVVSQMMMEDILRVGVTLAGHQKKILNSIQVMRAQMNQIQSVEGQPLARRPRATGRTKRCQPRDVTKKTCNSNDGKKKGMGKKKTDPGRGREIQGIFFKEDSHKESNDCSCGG
Description: as §1

ERN1 = ERN1 (Homo sapiens, UniProt O75460)
Description: as §1

FLT4 = FLT4 (Homo sapiens, UniProt P35916)
Description: as §1

FRK = FRK (Homo sapiens, UniProt P42685)
Description: as §1

IKK-alpha = target: T3, IKK-alpha (Homo sapiens, UniProt O15111)
T3 construct: gene CHUK
Description: as §1

KIT(V559D) = KIT(V559D) (Homo sapiens, UniProt P10721, V559D)
Chain of KIT(V559D) (P10721 whole entry V559D): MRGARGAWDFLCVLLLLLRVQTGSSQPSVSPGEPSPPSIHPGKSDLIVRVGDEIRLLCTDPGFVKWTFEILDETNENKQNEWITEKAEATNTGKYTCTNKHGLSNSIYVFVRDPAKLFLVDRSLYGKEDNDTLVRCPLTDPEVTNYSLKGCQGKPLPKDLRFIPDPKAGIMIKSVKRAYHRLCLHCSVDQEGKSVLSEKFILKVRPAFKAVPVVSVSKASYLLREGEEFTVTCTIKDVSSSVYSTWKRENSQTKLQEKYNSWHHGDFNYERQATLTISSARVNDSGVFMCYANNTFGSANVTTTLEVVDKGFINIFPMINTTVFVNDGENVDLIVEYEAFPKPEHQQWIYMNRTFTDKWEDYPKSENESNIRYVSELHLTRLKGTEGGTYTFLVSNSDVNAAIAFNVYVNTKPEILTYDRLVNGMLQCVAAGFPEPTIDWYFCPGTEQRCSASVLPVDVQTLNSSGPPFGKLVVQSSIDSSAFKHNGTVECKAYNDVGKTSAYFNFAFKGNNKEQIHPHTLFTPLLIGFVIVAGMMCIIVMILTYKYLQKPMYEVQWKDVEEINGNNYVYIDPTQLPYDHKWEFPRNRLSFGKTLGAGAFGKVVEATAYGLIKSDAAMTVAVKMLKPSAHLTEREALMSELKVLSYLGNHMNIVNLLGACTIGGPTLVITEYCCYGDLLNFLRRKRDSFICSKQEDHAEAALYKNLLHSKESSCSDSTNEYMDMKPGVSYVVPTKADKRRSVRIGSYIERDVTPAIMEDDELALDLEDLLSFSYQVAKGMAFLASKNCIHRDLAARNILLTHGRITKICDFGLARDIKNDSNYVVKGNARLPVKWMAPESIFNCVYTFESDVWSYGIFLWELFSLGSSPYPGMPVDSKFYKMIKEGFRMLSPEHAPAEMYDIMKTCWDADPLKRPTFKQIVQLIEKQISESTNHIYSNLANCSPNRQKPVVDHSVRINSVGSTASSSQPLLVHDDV
Description: as §1

KIT(V559D,V654A) = KIT(V559D,V654A) (Homo sapiens, UniProt P10721, V559D/V654A)
Chain of KIT(V559D,V654A) (P10721 whole entry V559D/V654A): as the sequence (P10721 whole entry V559D) above, with V654A counted along it
Description: as §1

LCK = LCK (Homo sapiens, UniProt P06239)
Description: as §1

LTK = LTK (Homo sapiens, UniProt P29376)
Description: as §1

MAP4K5 = MAP4K5 (Homo sapiens, UniProt Q9Y4K4)
Description: as §1

MET = MET (Homo sapiens, UniProt P08581)
Description: as §1

MYO3A = MYO3A (Homo sapiens, UniProt Q8NEV4)
Description: as §1

OSR1 = target: T4, OSR1 (Homo sapiens, UniProt O95747)
T4 construct: gene OXSR1
Description: as §1

PLK3 = PLK3 (Homo sapiens, UniProt Q9H4B4)
Description: as §1

RIOK2 = RIOK2 (Homo sapiens, UniProt Q9BVS4)
Chain of RIOK2 (Q9BVS4 whole entry): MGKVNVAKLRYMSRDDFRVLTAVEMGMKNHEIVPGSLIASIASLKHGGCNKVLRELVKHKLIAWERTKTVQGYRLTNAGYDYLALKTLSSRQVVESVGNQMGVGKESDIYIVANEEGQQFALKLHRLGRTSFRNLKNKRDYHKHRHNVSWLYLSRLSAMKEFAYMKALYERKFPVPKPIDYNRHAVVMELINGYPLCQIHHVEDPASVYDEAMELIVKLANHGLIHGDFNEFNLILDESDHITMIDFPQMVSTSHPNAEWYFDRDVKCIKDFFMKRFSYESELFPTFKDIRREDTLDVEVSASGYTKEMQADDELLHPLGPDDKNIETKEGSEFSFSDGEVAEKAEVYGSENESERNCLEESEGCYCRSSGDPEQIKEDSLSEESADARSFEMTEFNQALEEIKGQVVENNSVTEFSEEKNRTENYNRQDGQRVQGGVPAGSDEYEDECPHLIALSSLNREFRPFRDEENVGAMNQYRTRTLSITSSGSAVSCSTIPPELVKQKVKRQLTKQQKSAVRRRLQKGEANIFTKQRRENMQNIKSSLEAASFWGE
Description: as §1

TAOK1 = TAOK1 (Homo sapiens, UniProt Q7L7X3)
Description: as §1

[2] = target: T5, TYK2(JH2domain-pseudokinase) (Homo sapiens, UniProt P29597)
T5 construct: JH2domain-pseudokinase
Description: as §1

VEGFR2 = target: T6, VEGFR2 (Homo sapiens, UniProt P35968)
T6 construct: gene KDR
Description: as §1

With `Cn1c(=O)[nH]c2ccc(-c3cccc(C(=O)NC4CCn5ccnc5C4)c3)cc21` (stereo not shown) [Z36-MP5] the remaining binding at 1 µM [1] was 82%, the remaining binding at 1 µM (ALK) was 51% and the remaining binding at 1 µM (BMPR2) was 62%. The remaining binding at 1 µM (CASK) was 60%, the remaining binding at 1 µM (CDK4) was 62% and the remaining binding at 1 µM (CDK4-cyclinD1) was 67%. The remaining binding at 1 µM (DYRK2) was 84%, the remaining binding at 1 µM (EPHB2) was 70% and the remaining binding at 1 µM (ERN1) was 49%. The remaining binding at 1 µM (FLT4) was 80%, the remaining binding at 1 µM (FRK) was 100% and the remaining binding at 1 µM (IKK-alpha) was 80%. For the same molecule, the remaining binding at 1 µM (KIT(V559D)) was 90%, the remaining binding at 1 µM (KIT(V559D,V654A)) was 76% and the remaining binding at 1 µM (LCK) was 49%. For the same molecule, the remaining binding at 1 µM (LTK) was 82%, the remaining binding at 1 µM (MAP4K5) was 39% and the remaining binding at 1 µM (MET) was 96%. The remaining binding at 1 µM (MYO3A) was 100%, the remaining binding at 1 µM (OSR1) was 73% and the remaining binding at 1 µM (PLK3) was 68%. It also gave a remaining binding at 1 µM (RIOK2) of 84%, a remaining binding at 1 µM (TAOK1) of 100% and a remaining binding at 1 µM [2] of 79%. For the same molecule, the remaining binding at 1 µM (VEGFR2) was 56%.
